Biological target: T1, Monoacylglycerol lipase ABHD6 [33-337] (Homo sapiens, UniProt Q9BV23)
T1 construct: 33-337
T1 sequence (Q9BV23 whole entry): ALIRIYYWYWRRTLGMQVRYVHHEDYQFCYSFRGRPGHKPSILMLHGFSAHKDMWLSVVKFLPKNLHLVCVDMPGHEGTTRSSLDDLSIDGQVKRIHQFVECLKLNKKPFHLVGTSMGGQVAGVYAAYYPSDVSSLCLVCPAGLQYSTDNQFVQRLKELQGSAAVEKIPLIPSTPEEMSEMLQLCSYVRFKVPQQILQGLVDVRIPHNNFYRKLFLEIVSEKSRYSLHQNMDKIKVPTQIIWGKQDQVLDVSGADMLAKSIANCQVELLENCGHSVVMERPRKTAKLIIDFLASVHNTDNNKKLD
Assay: Evaluation of ABHD6 Enzyme Inhibitory Activity Assay
Method: The enzyme reaction was carried out at room temperature using a 384-well microplate made of polypropylene, and wells to which no enzyme was added were designated as a blank group. One hour after the start of the enzyme reaction, methanol containing, as an internal standard substance, arachidonic acid-d8 (Cayman Chemical) and 1% formic acid was added to stop enzymatic reaction. The upper part of the enzyme reaction plate was sealed with aluminum, and centrifugation was performed at 560 g for 5 minutes at room temperature. Then, arachidonic acid as an enzyme reaction product and arachidonic acid-ds as the internal standard substance were quantified with RapidFire (registered trademark)-Mass Spectrometry system.

IC50: in the range around 2 nM
Compound: CN(C)c1ncc(C(=O)N2C[C@@H]3CC[C@@H](Nc4ccc(Br)nn4)[C@@H]3C2)s1 [US20240010658, Example 2-6]
